# Assay results reported in US8546537B2, “Streptavidin having low immunogenicity and use thereof” (The University of Tokyo, priority 2009, dated 2013).
# Experiments:
# [1] = background art; cited from earlier work
# [2] = Kinetics analysis of interaction between streptavidin protein and biotin using Biacore biosensor; assay type: binding; details: for Kd: Biacore 3000, obtained from kd/ka, read-out: Dissociation constant Kd
# Experimental: As a ligand (a substance to be attached to a sensor chip) used for a Biacore (registered trademark) biosensor, an anti-mouse IgG antibody (manufactured by GE Healthcare Biosciences) was used. On the other hand, as analytes (substances to be supplied to the flow channel system), a biotinylated mouse antibody and various types of mutant streptavidins were prepared, and intermolecular interaction was then analyzed using Biacore (registered trademark) 3000 (a biosensor based on the principle of surface plasmon resonance; manufactured by GE Healthcare Biosciences). The anti-mouse IgG antibody was immobilized on all of the flow cells of a CM5 sensor chip according to an amine coupling method. The amount of the antibody immobilized on each flow cell was 8000 RU. Subsequently, as references, non-biotinylated mouse antibodies were captured onto Flow Cells 1 and 3, and biotinylated mouse antibodies were captured onto Flow Cells 2 and 4. Various types of streptavidins were loaded in a running buffer (HBS-EP; manufactured by GE Healthcare Biosciences) on Flow Cells 1 and 2, or 3 and 4, at a flow rate of 20 μl/min for 2 minutes. Thereafter, dissociation of each sample was monitored for 7 minutes. Thereafter, a reproduction operation was carried out using a 10 mM glycine-HCl buffer (pH 1.7) (manufactured by GE Healthcare Biosciences), and repeat measurement was then carried out. Using the analysis software BIAevaluation ver. 4.1, a reaction kinetics analysis was performed on a 1:1 binding model based on the obtained sensorgram, so as to calculate an association rate constant (ka) and a dissociation rate constant (kd). A dissociation constant (Kd) was obtained from kd/ka.
# The results of the kinetics analysis of the intermolecular interaction of a recombinant streptavidin and a biotin, which was carried out using Biacore (registered trademark) 3000 (a biosensor based on the principle of surface plasmon resonance; manufactured by GE Healthcare Biosciences), are as shown in Table 2.
# [3] = Biacore 3000, biotinylated mouse antibody captured, 1:1 binding model
Substance,isoelectric point [1],"Association rate constant ka [2, 3]","Dissociation rate constant kd [2, 3]",Kd [2] [nM]
Avidin: basic glycoprotein derived from albumen,exceeds 10,–,–,–
"cSA_WT: wild-type (native) core streptavidin, amino acid sequence SEQ ID NO: 2 [reference compound]",around the neutral range,2.81 × 10^5 M^−1 S^−1,6.32 × 10^−5 S^−1,0.225
mcSA_W120A: streptavidin mutant named W120A in Table 2; not described further [reference compound],–,–,7.49 × 10^−4 S^−1,3.53
